Type in all cases: physicochemical
The nature of data set [1]: Fluorescence of the dye in pH 7.4 PBS measured on the fluorimeter. The following applies: pH 7.4 PBS (FIG. 9). The protocol:
Bis-MA was dissolved in pH 7.4 PBS and its fluorescence was measured on the fluorimeter. FIG. 9 compares Bis-MA with the Mono- and Tri-substituted HPTS derivatives.

Data set [2] in a line: Comparison of dyes: emission/absorbance ratio (apparent quantum yield) in pH 7.4 PBS. The following applies: 1 × 10^−5 M in pH 7.4 PBS.
Data set [3] can be described thus: Determination of dye pKa via pH study, dye immobilized in 40% DMAA hydrogel. On the procedure: A hydrogel was prepared containing mono-CysMA, as described previously in U.S. patent application Ser. No. 11/671,880, to evaluate the fluorescence properties (excitation (ex), emission (em) and pKa) of mono-CysMA.
A pH study was carried out with the gel.
The three polymerizable dyes were immobilized using 40% DMAA and their pKa determined via a pH study.

This is an account of results in US8202731B2, “HPTS-mono and bis Cys-MA polymerizable fluorescent dyes for use in analyte sensors” (Glumetrics, Inc., priority 2007, dated 2012).

Structures are written as SMILES.

`C=C(C)C(=O)NCCCNS(=O)(=O)c1cc(S(=O)(=O)NCCCNC(=O)C(=C)C)c2ccc3c(S(=O)(=O)[O-])cc(O)c4ccc1c2c43.[Na+]` [Bis-MA]: the “Shift of fluorescence spectrum relative to mono- and tri-substituted HPTS derivatives” value in data set [1] is “red-shifted relative to the Mono product but blue-shifted relative to the Tri product”.
Turning to `O=S(=O)(O)c1cc(O)c2ccc3c(S(=O)(=O)O)cc(S(=O)(=O)O)c4ccc1c2c34` [HPTS, 8-hydroxypyrene-1,3,6-trisulfonic acid], the Absorbance in data set [2] stood at 0.1565. The Intensity at max in data set [2] (emission) was 553. The “Ratio (“Quantum Yield”)” value in data set [2] (Em/Abs ratio, apparent quantum yield, arbitrary numbers) is 3533. In addition, the pKa amounted to 7.3 in data set [3] (dye immobilized in 40% DMAA hydrogel, polymerizable dyes immobilized using 40% DMAA, pH study) and 7.3 in data set [3] (pH study with hydrogel containing mono-CysMA (FIG. 2), HPTS given for comparison).
